The nature of data set [1]: refractive index (Na D-line) (dimensionless). The note with it: 298.15 K; 101.33 kPa; Liquid; Standard Abbe refractometry.
For data set [2] the following is noted: Liquid; for mass density: 298.15 K, 101.33 kPa, Vibrating tube method; for vapor or sublimation pressure: Ebulliometric method (Recirculating still).

SMILES strings stand for the structures. Numbers after ± are expanded uncertainties.

For `CC(C)CC(C)(C)C` [2,2,4-trimethylpentane], the refractive index in data set [1] turned out to be 1.38894 ± 0.00072. The mass density in data set [2] was found to be 687.79 ± 0.2 kg/m3. For the same molecule, the “vapor or sublimation pressure” value in data set [2] (330 K) is recorded as 25.47 ± 0.16 kPa; in data set [2] (340 K), 36.64 ± 0.2 kPa.
For the molecule `CC(C)C(=O)C(C)C` [2,4-dimethyl-3-pentanone], in data set [1], the refractive index was found to be 1.3974 ± 0.0007. Besides, the mass density in data set [2] turned out to be 798.8 ± 0.21 kg/m3. Further, the “vapor or sublimation pressure” value in data set [2] (330 K) was 8.87 ± 0.04 kPa; in data set [2] (330.04 K), 8.87 ± 0.04 kPa; in data set [2] (331.02 K) it was 9.28 ± 0.04 kPa; in data set [2] (337.07 K), 12.02 ± 0.05 kPa; in data set [2] (340 K), 13.55 ± 0.06 kPa; in data set [2] (340.05 K) it was 13.58 ± 0.06 kPa. The “vapor or sublimation pressure” value in data set [2] (340.57 K) is 13.89 ± 0.06 kPa; in data set [2] (343.73 K) it was 15.78 ± 0.06 kPa; in data set [2] (347.76 K), 18.48 ± 0.07 kPa; in data set [2] (351.12 K), 21.02 ± 0.08 kPa; in data set [2] (365.8 K), 35.36 ± 0.11 kPa; in data set [2] (371.23 K) it was 42.49 ± 0.14 kPa. Besides, the “vapor or sublimation pressure” value in data set [2] (373.22 K) came out at 45.36 ± 0.15 kPa; in data set [2] (375.59 K), 49 ± 0.16 kPa; in data set [2] (378.26 K), 53.37 ± 0.18 kPa; in data set [2] (381.01 K) it was 58.22 ± 0.19 kPa; in data set [2] (382.94 K), 61.82 ± 0.2 kPa; in data set [2] (384.94 K) it was 65.74 ± 0.21 kPa.
As to `CC(C)O` [propan-2-ol], in data set [1], the refractive index is recorded as 1.37504 ± 0.00072. The mass density in data set [2] is recorded as 780.91 ± 0.16 kg/m3. For the same molecule, the “vapor or sublimation pressure” value amounted to 33.25 ± 0.23 kPa in data set [2] (330 K) and 52.97 ± 0.29 kPa in data set [2] (340 K).

The values above are taken from the NIST ThermoML archive (doi:10.1016/j.jct.2011.09.007).
